From patent US20210283099A1, “CDC7 KINASE INHIBITORS AND USES THEREOF” (SLOAN-KETTERING INSTITUTE FOR CANCER RESEARCH, priority 2010, published 2021)

Columns and labels:
[1] = Liver microsome stability test; type: in vitro ADME
Method: The stability of granaticin A was determined in mouse and human liver microsomes.

[2] = tested on: PhALL3.1; test: SCID-Beige mouse intraperitoneal tumor model of PhALL3.1; type: in vivo
Method: FIGS. 19A-19B. Granaticin A Inhibits growth of PhALL3. 1 in vivo: Using a SCID-Beige mouse intraperitoneal tumor model of PhALL3.1, mice were intraperitoneally treated with vehicle control (DMSO) or the indicated doses of granaticin A on days 3, 6, 9, and 12. Day 16 in vivo bioluminescence imaging (FIG. 19A) and quantitation of tumor volume are shown (FIG. 19B) and indicate 90% reduction in tumor volume by Day 16 in mice treated at the highest dose (3.0 mg/kg).

[3] = tested on: Ph-ALL3.1 cells; test: Release of elutriated G1 phase cells, 3H-thymidine incorporation and FACS; type: cell-based, human; set-up: dose or concentration left out as unconfirmed; details: G1 phase fraction released into granaticin A
Method: FIG. 2. Elutriation profile of PhALL3.1: Centrifugal elutriation was used to synchronize the recently established Philadelphia chromosome positive acute lymphoblastic leukemia cell line (PhALL3.1). An asynchronous culture (4 liters) was pelleted, resuspended in a small volume (20 ml), and loaded into the elutriation rotor as outlined by the manufacturer (Beckman). After equilibration and washing, cell samples were eluted from the rotor based on size with the smaller cells exiting the rotor first. Ten fractions (250 ml) were taken across the gradient and standard FACS analysis performed on 10 ml of each fraction looking at DNA content. G1, S, and G2 phase cell populations are indicated in the asynchronous profile. This method allows for isolation of phase specific cell populations.
FIG. 3. […] Ph-ALL3.1 cells were subjected to standard centrifugal elutriation conditions and the G1 phase fraction, as determined by FACS analysis (Time Zero), was released into granaticin A ([…]) or vehicle control (DMSO) for the indicated times. Cell samples post-release into granaticin A or vehicle control (DMSO) were pulsed for 2 hours with ^3H-thymidine and samples were collected, washed, and acid precipitable counts were measured by scintillation counting. X-axis is time post-release into compound or control (in hours) and y-axis is counts per minute (CPM). […]

[4] = biological target: human recombinant Cdc7 (Homo sapiens, UniProt O00311); test: In vitro kinase reaction, Mcm2 phosphorylation by Cdc7; type: biochemical; details: radioactive ATP, SDS-PAGE, autoradiography
human recombinant Cdc7, sequence (O00311 whole entry): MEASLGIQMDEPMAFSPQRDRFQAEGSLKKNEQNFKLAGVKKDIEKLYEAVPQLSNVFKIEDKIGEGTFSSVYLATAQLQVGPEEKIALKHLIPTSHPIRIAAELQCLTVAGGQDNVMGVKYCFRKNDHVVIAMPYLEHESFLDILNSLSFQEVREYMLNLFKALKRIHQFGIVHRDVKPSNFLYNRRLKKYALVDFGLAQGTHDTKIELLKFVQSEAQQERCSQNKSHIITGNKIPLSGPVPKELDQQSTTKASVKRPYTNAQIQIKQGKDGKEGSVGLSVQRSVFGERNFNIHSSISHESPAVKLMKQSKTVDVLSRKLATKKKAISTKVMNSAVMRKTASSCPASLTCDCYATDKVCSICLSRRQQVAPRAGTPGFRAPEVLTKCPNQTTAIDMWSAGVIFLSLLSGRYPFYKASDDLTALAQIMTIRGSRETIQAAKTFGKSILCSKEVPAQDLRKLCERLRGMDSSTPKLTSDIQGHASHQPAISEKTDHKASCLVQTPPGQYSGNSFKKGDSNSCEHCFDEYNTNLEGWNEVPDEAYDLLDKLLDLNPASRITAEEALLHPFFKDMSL
human recombinant Cdc7, sequence (Q9UBU7 whole entry partner): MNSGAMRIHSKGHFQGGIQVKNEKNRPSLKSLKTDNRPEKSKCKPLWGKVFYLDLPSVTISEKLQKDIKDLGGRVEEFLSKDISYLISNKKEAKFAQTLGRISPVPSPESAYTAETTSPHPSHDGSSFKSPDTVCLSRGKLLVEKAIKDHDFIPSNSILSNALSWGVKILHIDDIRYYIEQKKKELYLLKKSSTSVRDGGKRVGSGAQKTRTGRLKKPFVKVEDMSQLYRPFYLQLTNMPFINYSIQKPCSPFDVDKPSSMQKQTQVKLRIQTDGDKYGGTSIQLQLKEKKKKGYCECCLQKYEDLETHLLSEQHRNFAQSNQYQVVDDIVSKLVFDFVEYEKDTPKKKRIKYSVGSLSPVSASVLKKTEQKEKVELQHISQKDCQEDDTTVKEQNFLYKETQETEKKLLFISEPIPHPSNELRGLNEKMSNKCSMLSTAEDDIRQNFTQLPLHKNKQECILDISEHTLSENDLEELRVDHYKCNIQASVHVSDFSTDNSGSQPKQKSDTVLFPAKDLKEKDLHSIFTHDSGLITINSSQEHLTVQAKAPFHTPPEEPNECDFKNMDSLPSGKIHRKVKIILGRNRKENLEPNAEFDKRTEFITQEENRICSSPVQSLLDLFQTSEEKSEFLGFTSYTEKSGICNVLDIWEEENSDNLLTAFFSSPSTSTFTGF
Method: FIG. 8. Mcm2 phosphorylation by Cdc7: Phosphorylated forms of Mcm2 migrate […] in SDS-PAGE gels. Using highly purified human recombinant Cdc7 and Mcm2, standard in vitro kinase reactions were performed in the presence of radioactive ATP and products were separated on SDS-PAGE gels, stained with silver, and autoradiography was performed to detect phosphorylated forms of Mcm2.

[5] = tested on: HeLa cells; test: Caspase-3 activity in HeLa cells; type: cell-based, human; details: rescued by Bcl-XL overexpression and 10 micromolar Ac-DEVD-CHO
Method: FIGS. 12-14. Inhibition of Granaticin A Induced Caspase-3 Activity in HeLa cells. Growth curves in the presence of the indicated micromolar concentrations of granaticin A were performed and caspase-3 activity was measured following addition of a substrate that when cleaved by caspase-3 results in light emission which is quantitated by a fluorimeter (y-axis) as a function of time (x-axis).

**Q.** For `CC1OC2CC(O)C1(O)c1c(O)c3c(c(O)c12)C(=O)C1=C(C3=O)[C@H](C)O[C@H]2CC(=O)O[C@@H]12` (stereo partly shown) [Granaticin A, granaticin A], which recovery at 30 min ([1]; human liver microsomes) is on record?
**A.** The recovery at 30 min was 23.9%.

**Q.** And the recovery at 60 min ([1]; human liver microsomes)?
**A.** The recovery at 60 min was 12%.

**Q.** What about the recovery at 30 min ([1]; mouse liver microsomes) of the same compound?
**A.** Its recovery at 30 min is 3.68%.

**Q.** What about the recovery at 60 min ([1]; mouse liver microsomes) of the same compound?
**A.** The recovery at 60 min was 3.84%.

**Q.** What about the “organ toxicity at necropsy” value ([2]; all mice examined at each dose level) of the same compound?
**A.** Its value is “no significant (grade 2 or higher) organ toxicity”.

**Q.** And the “reduction in tumor volume” value ([2]; highest dose 3.0 mg/kg intraperitoneally on days 3, 6, 9, 12, Day 16 bioluminescence imaging)?
**A.** The value was 90%.

**Q.** And the 3H-thymidine incorporation [3]?
**A.** Its 3H-thymidine incorporation is “stop incorporating ^3H-thymidine”.

**Q.** And the cell cycle profile [3]?
**A.** The cell cycle profile was “G1 phase arrest”.

**Q.** What about the “Cdc7 kinase activity on Mcm2” value [4] of the same compound?
**A.** Its value is “small molecule inhibitor of Cdc7 kinase activity”.

**Q.** And the caspase-3 activity [5]?
**A.** Its caspase-3 activity is “activation of caspase-3 and apoptosis”.
